The results in this text go back to patent publication US8757784B2, “Ink for ink jet recording and recording method” (Seiko Epson Corporation, priority 2012, dated 2014).

One data set is described as follows: physchem.
Conditions: not given
The source says:
Herein, the “logP value” is an index that represents hydrophobicity of a compound. The logP value represents, in an octanol/water system, in which ratio a solute is distributed in these two layers. In other words, when the logP value of the solute is bigger, the hydrophobicity is higher and the solute is well dissolved in an octanol phase.
For example, the logP value can be determined using a flask shaking method using the solute and two types of solvents being actually placed in a flask and mixed by shaking the flask well, or a HPLC method using a high performance liquid chromatography (HPLC).
On to `OCCCCO` [1,4-butanediol], for which the logP was 0.5 and the logP value stood at 0.50.

Consider `CC(C)C(O)C(C)(C)CO` (stereo not shown) [2,2,4-trimethyl-1,3-pentanediol], for which the logP is 2.

With `CC(O)C(C)O` (stereo not shown) [2,3-butanediol], the log partition coefficient (logP) was -0.36.

The data set is the same for the next values; noted with them: octanol/water system.
Regarding `OCCCO` [1,3-propanediol], the logP value was −1.33.

For the molecule `OCC(O)CO` [glycerin], the logP value is given as −2.70.

In the case of `CCC(CO)(CO)CO` [trimethylol propane], the logP value was −0.47.

The same data set, now with this note: octanol/water, logP value, octanol/water system.
Consider `CCC(O)CO` (stereo not shown) [1,2-butanediol], for which the logP was -0.32.

`CCCCC(O)CO` (stereo not shown) [1,2-hexanediol] returned a logP of 0.5.

Molecule `CCCC(O)CO` (stereo not shown) [1,2-pentanediol] yielded a logP of 0.01.

As to `CCC(O)CCO` (stereo not shown) [1,3-pentanediol], the logP was -0.16.

In turn, `CCCC(=O)OCC(O)CO` (stereo not shown) [1-butanoyl glycerol] displayed a lipophilicity (logP) of 0.

For the molecule `CC(C)(CO)CO` [2,2-dimethyl-1,3-propanediol], the lipophilicity (logP) is -0.3.

`CC(C)(O)CCC(C)(C)O` [2,5-dimethyl-2,5-hexanediol] returned a logP of 1.53.

`CC(O)CCC(C)O` (stereo not shown) [2,5-hexanediol] returned a logP of 0.62.

For `CCCCC(CC)(CO)CO` [2-butyl-2-ethyl-1,3-propanediol], the lipophilicity (logP) is 2.1.

The molecule `CC(C)(O)CO` [2-methyl-1,2-propanediol] displayed a logP of 0.026.

`CC(CO)CO` [2-methyl-1,3-propanediol]: the logP is -0.6.

Turning to `CC(O)CC(C)(C)O` (stereo not shown) [2-methyl-2,4-pentanediol], the logP is 0.88.

On to `CC(C)(O)CCO` [3-methyl-1,3-butanediol], for which the logP is -0.33.

As for `CC(CCO)CCO` [3-methyl-1,5-pentanediol], the logP was -0.2.

Turning to `CC(O)CO` (stereo not shown) [propylene glycol], the logP was -0.92.

One may read the logP as the decadic logarithm of the partition coefficient of the neutral form, usually between octanol and water. A high value points to higher lipophilicity.
